Values quoted from earlier work in patent US20180271826A1, “DRY POWDERS OF CANNABINOIDS AND METHODS FOR PREPARING DRY POWDERS” (COLORADO CAN LLC, priority 2017, published 2018).

Assays:
[1] = cannabis resin, 4 years, 4° C. in the dark (Trofin 2012)
[2] = burning of cannabis cigarettes (Elzinga 2015)
[3] = oral ingestion (Ohlsson 1980)
[4] = plant material, room temperature (20° C.) near a source of light, a little under two years (Fairbarn 1976)
[5] = transdermal patch (Stinchcomb 2004)

| SMILES | original content degraded [1] [%] | theoretically present amount recovered in total smoke and remaining ash [2] [%] | time of peak THC concentrations after dosing [3] [h] | original THC content remaining [4] [%] | peak THC concentration [5] [ng/mL] | time of peak THC concentration [5] [h] |
| --- | --- | --- | --- | --- | --- | --- |
| C=C(C)[C@@H]1CCC(C)=C[C@H]1c1c(O)cc(CCCCC)cc1O [CBD, cannabidiol] | 55.75 | 38.4 | – | – | – | – |
| CCCCCc1cc(O)c2c(c1)OC(C)(C)[C@@H]1CCC(C)=C[C@@H]21 [THC, Δ9-tetrahydrocannabinol] | 95.77 | 36.9 | 1 to 5 | 37 | 4.4 | 1.4 |
